This note sets out measurements from ChEMBL document CHEMBL3045220, “Design, characterization, computational studies, and pharmacological evaluation of substituted-N-[(1E) substituted-phenylmethylidene]benzohydrazide analogs” (Med Chem Res, 2013).

One assay relates to Escherichia coli. Nature of the assay: Antibacterial activity against Escherichia coli by agar well diffusion method. The assay is classed as functional. The conditions noted are these: for MIC: Escherichia coli.
A further assay relates to Staphylococcus aureus. Nature of the assay: Antibacterial activity against Staphylococcus aureus by agar well diffusion method. The assay is classed as functional. The conditions noted are these: for MIC: Staphylococcus aureus.
Another assay has as its system Candida albicans. Nature of the assay: Antifungal activity against Candida albicans by agar well diffusion method. The assay is classed as functional. The conditions noted are these: for MIC: Candida albicans.
The test system of the next assay is Pseudomonas aeruginosa. In words: Antibacterial activity against Pseudomonas aeruginosa by agar well diffusion method. The assay is classed as functional. The conditions noted are these: for MIC: Pseudomonas aeruginosa.
Assay [1] is described as follows: Antioxidant activity assessed as Mo(6) reduction activity after 60 min by UV-Vis spectrophotometric analysis. The assay is classed as functional.
Assay [2] is described as follows: Anti-inflammatory activity assessed as inhibition of albumin denaturation incubated for 15 min at 27 degC followed by incubation at 60 degC for 10 min by UV-Vis spectrophotometric analysis.
In assay [3] the test system is Staphylococcus epidermidis. Nature of the assay: Antibacterial activity against Staphylococcus epidermidis by agar well diffusion method. The assay is classed as functional. The conditions noted are these: for MIC: Staphylococcus epidermidis.
Assay [4] can be described thus: Antioxidant activity assessed as H2O2 scavenging activity after 10 min by UV-Vis spectrophotometric analysis. The assay is classed as functional.
The test system of the next assay is Aspergillus niger. Nature of the assay: Antifungal activity against Aspergillus niger by agar well diffusion method. The assay is classed as functional. The conditions noted are these: for MIC: Aspergillus niger.

≈ marks a conversion by molar mass, not a printed value.

As for `O=C(N/N=C/c1ccc(Cl)cc1)c1ccccc1C(=O)c1ccccc1`, the “-logMIC” value in the assay with Escherichia coli stood at 1.924; in the assay with Staphylococcus aureus it was 1.531; with Candida albicans, 2.301; with Pseudomonas aeruginosa it was 1.09; in [3], 1.69; in the assay on Aspergillus niger it was 1.3. In addition, the MIC with Escherichia coli was determined as 84 µg/mL (≈ 232 µM); in the assay on Staphylococcus aureus, 34 µg/mL (≈ 93.7 µM); in the assay on Candida albicans, 200 µg/mL (≈ 551 µM); against Pseudomonas aeruginosa, 12.5 µg/mL (≈ 34.5 µM); in assay [3], 50 µg/mL (≈ 138 µM); in the assay with Aspergillus niger, 20 µg/mL (≈ 55.1 µM). Also, the IC50 worked out at 20 µg/mL (≈ 55.1 µM) in [1], 54 µg/mL (≈ 149 µM) in assay [2] and 109 µg/mL (≈ 300 µM) in assay [4].

Consider `O=C(N/N=C/c1ccc([N+](=O)[O-])cc1)c1ccccc1C(=O)c1ccccc1`, for which the “-logMIC” value in the assay with Escherichia coli is given as 1.397; in the assay on Staphylococcus aureus, 1.531; in the assay on Candida albicans, 1.924; with Pseudomonas aeruginosa it was 1.3; in assay [3], 1.47; in the assay on Aspergillus niger, 1.4. Moreover, the MIC against Escherichia coli was 25 µg/mL (≈ 67 µM); with Staphylococcus aureus, 34 µg/mL (≈ 91.1 µM); in the assay with Candida albicans it was 84 µg/mL (≈ 225 µM); against Pseudomonas aeruginosa it was 20 µg/mL (≈ 53.6 µM); in [3], 30 µg/mL (≈ 80.3 µM); in the assay on Aspergillus niger, 25 µg/mL (≈ 67 µM). Also, the 50% inhibitory concentration (IC50) is 18 µg/mL (≈ 48.2 µM) in [1], 17 µg/mL (≈ 45.5 µM) in assay [2] and 125 µg/mL (≈ 335 µM) in [4].

As for `COc1cc(/C=N/NC(=O)c2ccccc2C(=O)c2ccccc2)ccc1O`, the “-logMIC” value in the assay on Escherichia coli is reported as 1.698; in the assay with Staphylococcus aureus, 1.531; with Candida albicans, 1.301; in the assay on Pseudomonas aeruginosa it was 1.69; in [3], 2.3; with Aspergillus niger it was 1.4. The MIC in the assay on Escherichia coli worked out at 50 µg/mL (≈ 134 µM); in the assay with Staphylococcus aureus, 34 µg/mL (≈ 90.8 µM); against Candida albicans it was 20 µg/mL (≈ 53.4 µM); with Pseudomonas aeruginosa, 50 µg/mL (≈ 134 µM); in assay [3], 200 µg/mL (≈ 534 µM); against Aspergillus niger it was 25 µg/mL (≈ 66.8 µM). Besides, the IC50 in assay [1] worked out at 70 µg/mL (≈ 187 µM); in assay [2] it was 10 µg/mL (≈ 26.7 µM); in assay [4] it was 79 µg/mL (≈ 211 µM).

For the molecule `O=C(N/N=C/c1ccc(O)cc1)c1ccccc1C(=O)c1ccccc1`, the “-logMIC” value is recorded as 1.903 in the assay with Escherichia coli; 1.531 with Staphylococcus aureus; 2 in the assay on Candida albicans; 1.4 with Pseudomonas aeruginosa; 1.92 in assay [3]; 1.92 with Aspergillus niger. For the same molecule, the minimum inhibitory concentration (MIC) against Escherichia coli is 80 µg/mL (≈ 232 µM); with Staphylococcus aureus, 34 µg/mL (≈ 98.7 µM); in the assay on Candida albicans, 100 µg/mL (≈ 290 µM); against Pseudomonas aeruginosa, 25 µg/mL (≈ 72.6 µM); in assay [3] it was 84 µg/mL (≈ 244 µM); with Aspergillus niger, 84 µg/mL (≈ 244 µM). The results for the IC50 in assay [1], in assay [2] and in assay [4] were 100 µg/mL (≈ 290 µM), 20 µg/mL (≈ 58.1 µM) and 91 µg/mL (≈ 264 µM), respectively.

For `O=C(N/N=C/c1ccccc1O)c1ccccc1C(=O)c1ccccc1`, the “-logMIC” value in the assay with Escherichia coli is on record as 1.531; in the assay with Staphylococcus aureus it was 1.301; with Candida albicans it was 2; with Pseudomonas aeruginosa, 1.09; in assay [3] it was 1.53; in the assay on Aspergillus niger, 1.53. Besides, the MIC with Escherichia coli is 34 µg/mL (≈ 98.7 µM); in the assay on Staphylococcus aureus, 20 µg/mL (≈ 58.1 µM); in the assay on Candida albicans it was 100 µg/mL (≈ 290 µM); in the assay on Pseudomonas aeruginosa it was 12.5 µg/mL (≈ 36.3 µM); in assay [3], 34 µg/mL (≈ 98.7 µM); against Aspergillus niger it was 34 µg/mL (≈ 98.7 µM). Besides, the IC50 came to 15 µg/mL (≈ 43.6 µM) in assay [1], 35 µg/mL (≈ 102 µM) in [2] and 132 µg/mL (≈ 383 µM) in [4].

On to `COc1cc(/C=N/NC(=O)c2ccc(Cl)cc2)ccc1O`, for which the “-logMIC” value in the assay on Escherichia coli is on record as 1.531; in the assay on Staphylococcus aureus it was 1.255; in the assay with Candida albicans, 1.924; with Pseudomonas aeruginosa, 1.4; in assay [3], 2; in the assay on Aspergillus niger it was 1.69. Further, the minimum inhibitory concentration (MIC) is 34 µg/mL (≈ 112 µM) in the assay with Escherichia coli; 18 µg/mL (≈ 59.1 µM) in the assay with Staphylococcus aureus; 84 µg/mL (≈ 276 µM) against Candida albicans; 25 µg/mL (≈ 82 µM) against Pseudomonas aeruginosa; 100 µg/mL (≈ 328 µM) in assay [3]; 50 µg/mL (≈ 164 µM) against Aspergillus niger. Moreover, the figures for the IC50 in [1], in [2] and in assay [4] were 32 µg/mL (≈ 105 µM), 160 µg/mL (≈ 525 µM) and 0.5 µg/mL (≈ 1.64 µM), respectively.

Take `Cc1ccc(/C=N/NC(=O)c2ccc(Cl)cc2)cc1`: the “-logMIC” value in the assay on Escherichia coli is on record as 2.264; in the assay with Staphylococcus aureus, 1.477; in the assay with Candida albicans it was 1.301; in the assay on Pseudomonas aeruginosa, 0.81; in [3], 2.3. Besides, the minimal inhibitory concentration (MIC) against Escherichia coli stood at 184 µg/mL (≈ 675 µM); in the assay with Staphylococcus aureus it was 30 µg/mL (≈ 110 µM); against Candida albicans it was 20 µg/mL (≈ 73.3 µM); against Pseudomonas aeruginosa it was 6.5 µg/mL (≈ 23.8 µM); in assay [3], 200 µg/mL (≈ 733 µM); with Aspergillus niger it was 10 µg/mL (≈ 36.7 µM). For the same molecule, the IC50 in assay [1] came out at 42 µg/mL (≈ 154 µM); in assay [2], 86 µg/mL (≈ 315 µM); in [4] it was 4.3 µg/mL (≈ 15.8 µM).

Regarding `O=C(N/N=C/c1c(O)ccc2ccccc12)c1ccc(Cl)cc1`, the “-logMIC” value in the assay with Escherichia coli stood at 1.924; with Staphylococcus aureus, 1.477; in the assay with Candida albicans it was 1.531; in the assay on Pseudomonas aeruginosa, 1.4; in [3], 2; in the assay on Aspergillus niger it was 2. The minimal inhibitory concentration (MIC) in the assay with Escherichia coli came to 84 µg/mL (≈ 259 µM); against Staphylococcus aureus, 30 µg/mL (≈ 92.4 µM); against Candida albicans, 34 µg/mL (≈ 105 µM); against Pseudomonas aeruginosa it was 25 µg/mL (≈ 77 µM); in assay [3], 100 µg/mL (≈ 308 µM); with Aspergillus niger it was 100 µg/mL (≈ 308 µM). Also, the concentration for half-maximal inhibition (IC50) is 120 µg/mL (≈ 369 µM) in assay [1], 80 µg/mL (≈ 246 µM) in assay [2] and 69 µg/mL (≈ 212 µM) in assay [4].

For the molecule `O=C(N/N=C/c1cccc([N+](=O)[O-])c1)c1ccc(Cl)cc1`, the “-logMIC” value in the assay on Escherichia coli was 1.301; with Staphylococcus aureus it was 1.301; in the assay on Candida albicans, 1.531; with Pseudomonas aeruginosa it was 1.4; in assay [3], 1.69. Further, the minimum inhibitory concentration (MIC) in the assay on Escherichia coli came out at 20 µg/mL (≈ 65.9 µM); with Staphylococcus aureus, 20 µg/mL (≈ 65.9 µM); with Candida albicans, 34 µg/mL (≈ 112 µM); with Pseudomonas aeruginosa it was 25 µg/mL (≈ 82.3 µM); in assay [3], 50 µg/mL (≈ 165 µM); against Aspergillus niger, 10 µg/mL (≈ 32.9 µM). In addition, the IC50 in assay [1] turned out to be 30 µg/mL (≈ 98.8 µM); in assay [2], 124 µg/mL (≈ 408 µM); in [4], 22 µg/mL (≈ 72.4 µM).
